Results as given in article PMC11708041, “Structural basis of a microbial trimethylamine transporter” (mBio, 2024).

Key:
[1] = target: T1, TmaT (Myroides profundi, UniProt A0A0B5RUB0); test: microscale thermophoresis; type: binding
T1 construct: full-length, 529 residues, C-terminal 8xHis tag (pET-22b), expressed in E. coli C43(DE3), DDM-solubilised; homotrimer
T1 sequence (A0A0B5RUB0 1-529): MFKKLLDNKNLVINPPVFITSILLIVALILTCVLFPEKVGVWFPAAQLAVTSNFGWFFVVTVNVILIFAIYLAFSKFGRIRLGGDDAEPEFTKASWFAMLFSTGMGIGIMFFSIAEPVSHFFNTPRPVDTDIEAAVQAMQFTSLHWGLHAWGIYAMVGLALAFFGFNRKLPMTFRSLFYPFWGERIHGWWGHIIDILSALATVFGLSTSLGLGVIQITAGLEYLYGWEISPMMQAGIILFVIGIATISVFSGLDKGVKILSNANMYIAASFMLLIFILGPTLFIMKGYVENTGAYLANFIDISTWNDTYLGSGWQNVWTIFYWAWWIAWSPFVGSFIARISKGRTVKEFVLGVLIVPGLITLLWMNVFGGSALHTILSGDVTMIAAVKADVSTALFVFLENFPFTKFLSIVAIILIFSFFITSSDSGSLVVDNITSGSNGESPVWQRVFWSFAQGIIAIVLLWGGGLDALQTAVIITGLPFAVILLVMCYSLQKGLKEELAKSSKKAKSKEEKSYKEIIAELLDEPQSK
Excerpt: microscale thermophoresis on TmaT

[2] = target: the molecule itself; test: cryo-EM structure; single-particle cryo-EM of purified TmaT (about 8 mg/mL, in DDM); apo TmaT, and with 2 mM or 5 mM TMA; homotrimer

Q: `CN(C)C` [TMA] was tested. Which Kd [1] did it give?
A: 49 ± 9.4 µM

B1: TmaT, TMA transporter of Myroides profundi D25 (natural protein, UniProt A0A0B5RUB0 1-529, looked up)
chain: MFKKLLDNKNLVINPPVFITSILLIVALILTCVLFPEKVGVWFPAAQLAVTSNFGWFFVVTVNVILIFAIYLAFSKFGRIRLGGDDAEPEFTKASWFAMLFSTGMGIGIMFFSIAEPVSHFFNTPRPVDTDIEAAVQAMQFTSLHWGLHAWGIYAMVGLALAFFGFNRKLPMTFRSLFYPFWGERIHGWWGHIIDILSALATVFGLSTSLGLGVIQITAGLEYLYGWEISPMMQAGIILFVIGIATISVFSGLDKGVKILSNANMYIAASFMLLIFILGPTLFIMKGYVENTGAYLANFIDISTWNDTYLGSGWQNVWTIFYWAWWIAWSPFVGSFIARISKGRTVKEFVLGVLIVPGLITLLWMNVFGGSALHTILSGDVTMIAAVKADVSTALFVFLENFPFTKFLSIVAIILIFSFFITSSDSGSLVVDNITSGSNGESPVWQRVFWSFAQGIIAIVLLWGGGLDALQTAVIITGLPFAVILLVMCYSLQKGLKEELAKSSKKAKSKEEKSYKEIIAELLDEPQSK
notes: TmaT, trimethylamine transporter of the betaine-choline-carnitine transporter (BCCT) family, Myroides profundi D25; full-length tmaT, 1,590 nucleotides encoding a 529-amino-acid polypeptide; no removal of the tag is described; Homotrimer in the cryo-EM structures; also called recombinant TmaT; WT TmaT
Q: B1 was tested. Which “stoichiometry N” value [2] did it give?
A: 3
